System: dengue virus type 2
Assay: Antiviral activity against DENV-2 16681 expressing eGFP infected in african green monkey Vero cells incubated with cells for 24 hrs followed by viral infection measured after 3 days by laser microscopic analysis
Format: functional, organism-based
Settings: Dengue virus, 16681, Vero

Row | SMILES | EC50 [nM]
1 | COc1cc(NC(C(=O)c2c[nH]c3cc(Cl)ccc23)c2ccc(F)cc2OC)cc(OCCO)c1 (stereo not given) | 2
2 | COc1cc(NC(C(=O)c2c[nH]c3c(C)c(OC)ccc23)c2ccc(F)cc2OC)cc(OCCO)c1 (single isomer, unassigned; (+)) | 1
3 | COc1cc(NC(C(=O)c2c[nH]c3ccc(F)cc23)c2ccc(F)cc2)cc(OCCO)c1 (stereo not given) | 16
4 | COc1cc(NC(C(=O)c2c[nH]c3cc(F)ccc23)c2ccc(F)cc2OCCO)cc(OCCO)c1 (stereo not given) | 41
5 | COc1cc(NC(C(=O)c2c[nH]c3c(F)c(F)ccc23)c2ccc(F)cc2OC)cc(OCCO)c1 (stereo not given) | 3
6 | COc1cc(NC(C(=O)c2c[nH]c3cc(F)ccc23)c2ccc(F)cc2Cl)cc(OCCO)c1 (single isomer, unassigned; (-)) | 6

Same assay, conditions: vero

Row | SMILES | EC50 [nM]
7 | COc1cc(NC(C(=O)c2c[nH]c3cc(F)ccc23)c2ccc(F)cc2)cc(OCCO)c1 (stereo in doubt; (-)-7b) | 93
8 | COc1cc(NC(C(=O)c2c[nH]c3cc(F)ccc23)c2ccc(F)cc2)cc(OCCO)c1 (single isomer, unassigned; (+)) | 11

System: dengue virus type 2
Assay: In vivo antiviral activity against DENV-2/RL infected in AG129 mouse assessed as viral load reduction administered at 3 to 30 mg/kg, po bid for 3 days
Format: functional, organism-based
Settings: dose 3-30 mg/kg, time 3.0 day

Row | SMILES | Activity
9 | COc1cc(NC(C(=O)c2c[nH]c3cc(F)ccc23)c2ccc(Cl)cc2OC)cc(OCCO)c1 (single isomer, unassigned; (+)) | Dose-Dependent Effect

System: not listed separately
Assay: Microsomal stability in mouse liver microsomes assessed as intrinsic clearance preincubated for 5 mins followed by NADPH addition measured upto 60 mins by LC-MS/MS analysis
Format: ADME, Microsome
Settings: time < 65 min, read-out: CLH

Row | SMILES | microsomal CLint [µL/min/mg]
10 | COc1cc(NC(C(=O)c2c[nH]c3cc(Cl)ccc23)c2ccc(F)cc2OC)cc(OCCO)c1 (stereo not given) | < 8
11 | COc1cc(NC(C(=O)c2c[nH]c3c(C)c(OC)ccc23)c2ccc(F)cc2OC)cc(OCCO)c1 (single isomer, unassigned; (+)) | < 8
12 | COc1cc(NC(C(=O)c2c[nH]c3ccc(F)cc23)c2ccc(F)cc2)cc(OCCO)c1 (stereo not given) | 50
13 | COc1cc(NC(C(=O)c2c[nH]c3c(F)c(F)ccc23)c2ccc(F)cc2OC)cc(OCCO)c1 (stereo not given) | 8

System: not listed separately
Assay: Microsomal stability in human liver microsomes assessed as intrinsic clearance preincubated for 5 mins followed by NADPH addition measured upto 60 mins by LC-MS/MS analysis
Format: ADME, Microsome
Settings: time < 65 min, read-out: CLH

Row | SMILES | microsomal CLint [µL/min/mg]
14 | COc1cc(NC(C(=O)c2c[nH]c3cc(Cl)ccc23)c2ccc(F)cc2OC)cc(OCCO)c1 (stereo not given) | < 8
15 | COc1cc(NC(C(=O)c2c[nH]c3c(C)c(OC)ccc23)c2ccc(F)cc2OC)cc(OCCO)c1 (single isomer, unassigned; (+)) | < 8
16 | COc1cc(NC(C(=O)c2c[nH]c3ccc(F)cc23)c2ccc(F)cc2)cc(OCCO)c1 (stereo not given) | < 8
17 | COc1cc(NC(C(=O)c2c[nH]c3c(F)c(F)ccc23)c2ccc(F)cc2OC)cc(OCCO)c1 (stereo not given) | < 8

System: not listed separately
Assay: Cytotoxicity against african green monkey Vero cells by ATPlite cell viability luminescence assay
Format: toxicity, cell-based
Settings: chlorocebus sabaeus

Row | SMILES | CC50 [µM]
18 | COc1cc(NC(C(=O)c2c[nH]c3cc(Cl)ccc23)c2ccc(F)cc2OC)cc(OCCO)c1 (stereo not given) | 5.9
19 | COc1cc(NC(C(=O)c2c[nH]c3c(C)c(OC)ccc23)c2ccc(F)cc2OC)cc(OCCO)c1 (single isomer, unassigned; (+)) | 8.9
20 | COc1cc(NC(C(=O)c2c[nH]c3ccc(F)cc23)c2ccc(F)cc2)cc(OCCO)c1 (stereo not given) | 14
21 | COc1cc(NC(C(=O)c2c[nH]c3cc(F)ccc23)c2ccc(F)cc2OCCO)cc(OCCO)c1 (stereo not given) | 14
22 | COc1cc(NC(C(=O)c2c[nH]c3c(F)c(F)ccc23)c2ccc(F)cc2OC)cc(OCCO)c1 (stereo not given) | 6.6
23 | COc1cc(NC(C(=O)c2c[nH]c3cc(F)ccc23)c2ccc(F)cc2Cl)cc(OCCO)c1 (single isomer, unassigned; (-)) | 8.2

System: dengue virus type 2
Assay: Antiviral activity against DENV-2 16681 infected in african green monkey Vero cells incubated for 24 hrs measured after 3 days post infection
Format: functional, organism-based
Settings: Dengue virus, 16681, Vero

Row | SMILES | EC50 [nM]
24 | COc1cc(NC(C(=O)c2c[nH]c3cc(F)ccc23)c2ccc(C)cc2OC)cc(OCCO)c1 (stereo not given) | 7
25 | COc1cc(NC(C(=O)c2c[nH]c3cc(F)ccc23)c2ccc(Cl)cc2OC)cc(OCCO)c1 (stereo in doubt; 24) | 1
26 | COc1cc(NC(C(=O)c2c[nH]c3cc(F)ccc23)c2ccc(C(F)(F)F)cc2OC)cc(OCCO)c1 (stereo not given) | 3
27 | COc1cc(NC(C(=O)c2c[nH]c3cc(F)ccc23)c2ccc(OC(F)(F)F)cc2OC)cc(OCCO)c1 (stereo not given) | 22

System: dengue virus type 4
Assay: Antiviral activity against DENV-4 H241 infected in african green monkey Vero cells incubated for 24 hrs measured after 3 days post infection
Format: functional, organism-based
Settings: Dengue virus, H241, Vero

Row | SMILES | EC50 [nM]
28 | COc1cc(NC(C(=O)c2c[nH]c3cc(F)ccc23)c2ccc(C)cc2OC)cc(OCCO)c1 (stereo not given) | 960
29 | COc1cc(NC(C(=O)c2c[nH]c3cc(F)ccc23)c2ccc(Cl)cc2OC)cc(OCCO)c1 (stereo in doubt; 24) | 360
30 | COc1cc(NC(C(=O)c2c[nH]c3cc(F)ccc23)c2ccc(C(F)(F)F)cc2OC)cc(OCCO)c1 (stereo not given) | 770
31 | COc1cc(NC(C(=O)c2c[nH]c3cc(F)ccc23)c2ccc(OC(F)(F)F)cc2OC)cc(OCCO)c1 (stereo not given) | 3430

System: not listed separately
Assay: Microsomal stability in rat liver microsomes assessed as intrinsic clearance preincubated for 5 mins followed by NADPH addition measured upto 60 mins by LC-MS/MS analysis
Format: ADME, Microsome
Settings: time < 65 min, read-out: CLH

Row | SMILES | microsomal CLint [µL/min/mg]
32 | COc1cc(NC(C(=O)c2c[nH]c3cc(Cl)ccc23)c2ccc(F)cc2OC)cc(OCCO)c1 (stereo not given) | 24
33 | COc1cc(NC(C(=O)c2c[nH]c3c(C)c(OC)ccc23)c2ccc(F)cc2OC)cc(OCCO)c1 (single isomer, unassigned; (+)) | 17
34 | COc1cc(NC(C(=O)c2c[nH]c3ccc(F)cc23)c2ccc(F)cc2)cc(OCCO)c1 (stereo not given) | 10
35 | COc1cc(NC(C(=O)c2c[nH]c3c(F)c(F)ccc23)c2ccc(F)cc2OC)cc(OCCO)c1 (stereo not given) | 8

From ChEMBL document CHEMBL5331131, “Discovery of Acyl-Indole Derivatives as Pan-Serotype Dengue Virus NS4B Inhibitors” (J Med Chem, 2023)
